According to patent US20260166051A1, “COMPOUNDS AND METHODS FOR TREATING CANCER” (The Regents of the University of California, priority 2022, published 2026):
“Also recorded” adds a separate entry of the source. Where two headings read alike, the source gives them in different places. Blank lines part the entries; values can stand above or below the compound they belong to.

How the values were obtained:
[1] = In vivo BBB penetration of compound 2; conditions: mice
[2] = system: patient-derived glioma cells; assay: Secondary screening: self-renewal in patient-derived glioma cells; type: cell-based, human; conditions: patient-derived glioma cells (GBM)
Experimental: (§1) Cells were seeded under serum-free conditions into untreated plates in DMEM/F12 media, supplemented with 10 ml/500 mL of B27 (Invitrogen), 0.145 U/ml recombinant insulin (Eli Lilly, Indiana), 0.68 U/mL heparin (Fresenius Kabi, Illinois), 20 ng/ml fibroblast growth factor 2 (bFGF, Sigma) and 20 ng/ml epidermal growth factor (EGF, Sigma). After 10 days in culture, spheres formed from singles cells were counted. Certain compounds tested in sphere-forming assay according to the present disclosure are shown below. Results are shown in FIGS. 6, 7, 8, 9-19, 26, 33-37.

HK-374 glioma stem cells = assay: Sphere-forming assay: self-renewal of HK-374 glioma stem cells; type: cell-based, human; conditions: n=3
From the text: FIG. 42. Inhibition of self-renewal of HK-374 glioma stem cells in the absence of radiation.
FIG. 43. Inhibition of self-renewal of HK-374 glioma stem cells in combination with 4 Gy.
Primary human glioma cell lines were established at UCLA as described (Hemmati et al., PNAS 2003; Characteristics of specific gliomasphere lines can be found in Laks et al., Neuro-Oncology 2016). Primary glioblastoma cells were propagated as gliomaspheres in serum-free conditions in T25 flasks in DMEM/F12, supplemented with B27, EGF, bFGF and heparin as described previously (Vlashi et al., Journal of the NCI, 2009, 101, 350-9). All cells were grown in a humidified atmosphere at 37° C. with 5% CO2. The unique identity of all patient-derived specimen was confirmed by DNA fingerprinting (Laragen, Culver City, CA). All lines were routinely tested for mycoplasma infection (MycoAlert, Lonza). […]
as §1, with “Certain compounds tested in sphere-forming assay according to the present disclosure are shown below. Results are shown in FIGS. 6, 7, 8, 9-19, 26, 33-37.” left out

[3] = system: Nestin-positive glioma stem cells; assay: Immunofluorescent staining of brains of glioma bearing mice; type: in vivo; conditions: combined treatment with radiation and MXC-017
From the text: (§2) FIGS. 41A-B. Immunofluorescent staining of brains of glioma bearing mice using antibodies against Olig2 and Nestin. Combined treatment with radiation and MXC-017 eliminated Nestin-positive glioma stem cells in the tumors while not effecting the sensitive normal tissue cell population of Olig2-positive oligodendrocytes in the brain. Nuclei were counterstained.

[4] = system: Olig2-positive oligodendrocytes; assay: as above; type: in vivo; conditions: combined treatment with radiation and MXC-017
From the text: as §2

p-ERK = assay: Western blotting of patient-derived glioblastoma cells; type: cell-based, human; conditions: Western blot
From the text: (§3) Compound 2 was identified in an unbiased phenotypic screen and MCX analogs were synthesized without knowledge of the actual molecular target. […] Western blotting confirmed inhibition of the downstream targets with downregulation of p-Erk, p-Akt and upregulation of cytosolic beta-catenin (FIG. 4).

p-AKT = assay: as above; type: cell-based, human; conditions: Western blot
From the text: as §3

cytosolic beta-catenin = assay: as above; type: cell-based, human; conditions: Western blot
From the text: as §3

[5] = system: non-stem glioblastoma cells; assay: Reprogramming assay (phenotype conversion, ZsGreen-cODC reporter, flow cytometry); type: cell-based, human; conditions: spontaneous and radiation-induced
Experimental: Primary glioblastoma cells were engineered to express a fusion protein of ZsGreen and the C-terminal degron of ornithine decarboxylase. This construct reports for lack of 26S proteasome activity and cells with low proteasome activity are enriched for cells with tumor-initiating properties. For reprogramming experiments, cells with low proteasome activity (ZsGreen-positive) were removed by FACS. ZsGreen-negative cells were treated and 5 days later the number of radiation-induced ZsGreen-positive cells was assessed by flow cytometry.

[6] = Tolerability and body weight in mice; type: in vivo, NSG mice
normal tissue cell lines = assay: Toxicity in normal tissue cell lines (NIH3T3 fibroblasts, EOC20 microglia, human astrocytes, murine neural stem/progenitor cells); type: cell-based; conditions: alone or in combination with radiation
From the text: FIGS. 5A-D. Toxicity of the analogs MXC017, 079 and 021 in fibroblasts (NIH3T3, FIG. 5A), microglia cells (EOC20, FIG. 5B), human astrocytes (FIG. 5C) or murine neural stem/progenitor cells (FIG. 5D).
as §3

PDOX models of GBM = assay: Survival in PDOX models of GBM; type: in vivo, mice
[7] = PK study, plasma and brain concentration by mass spectrometry; type: in vivo; conditions: mice; for Kp: mouse, brain/plasma, 50 mg/kg
Experimental: FIGS. 38A and 38B. PK studies for MXC-017 and MXC-079 Mice were treated with a single dose of the novel compounds at 50 mg/kg. Plasma and brain samples were taken at indicated time points and compound concentration measured by mass spectrometry.
(§4) After two weeks of treatment the tumors were harvested, processed into single cells and the number of glioma cells with sphere-forming capacity (glioma stem cells) was determined in a functional assay (extreme limiting dilution assay). […] (FIG. 40A).

HK374 cells = assay: In vivo treatment of HK374 tumors, then in vitro extreme limiting dilution assay; parameters: species or system NSG mice
Experimental: FIGS. 39A-D. FIG. 39A NSG mice were injected with HK374 cells. After 2 weeks post grafting, mice received a single dose of 10 Gy and 5 daily injections/week of MXC-017 or saline for 2 weeks. Tumors were harvested and an in vitro extreme limiting dilution assay was performed. […] FIG. 39D Elimination of GSCs was reflected by the complete loss of cells with self-renewing capacity.
as §4

[8] = Histology of major organs (kidneys, lung, spleen, heart, liver); type: in vivo, mice; conditions: 50 mg/kg, 2 weeks, 5 days on, 2 days off
[9] = alone or in combination with radiation
[10] = single dose 50 mg/kg, brain versus plasma, read-out: enrichment in brain tissue
[11] = read-out: brain to plasma ratio

- BBB penetration in vivo [1]: penetrates the BBB
SMILES: C=C1c2ccccc2NC(=O)N1Cc1ccc(S(=O)(=O)N2CCCCC2)cc1 [Compound 2, 4-Methylene-3-(4-(piperidin-1-ylsulfonyl)benzyl)-3,4-dihydroquinazolin-2(1H)-one]
- BBB penetration in vivo ([1]; listed as compound 2): confirmed the in silico prediction of BBB penetration
- inhibition of self-renewal [2]: inhibits self-renewal
- inhibition of self-renewal ([2]; listed as compound 2): confirming activity

SMILES: O=C(NCc1ccc(S(=O)(=O)N2CCCCC2)cc1)n1ccc2cc(Cl)ccc21 [MHD003, 5-chloro-N-(4-(piperidin-1-ylsulfonyl)benzyl)-1H-indole-1-carboxamide]
- self renewal of glioma stem cells, % of irradiated controls (HK-374 glioma stem cells; in combination with 4 Gy, controls DMSO, p<0.0001): 6%
- self-renewal of HK-374 glioma stem cells in the absence of radiation (reduced to) (HK-374 glioma stem cells; unirradiated cells, one-way ANOVA): 14%

SMILES: O=C(NCc1ccc(S(=O)(=O)N2CCCCC2)cc1)n1ccc2ccccc21 [MXC017, N-(4-(Piperidin-1-ylsulfonyl)benzyl)-1H-indole-1-carboxamide]
- Nestin-positive glioma stem cells in the tumors [3]: eliminated
- effect on oligodendrocytes (normal tissue) in the brain [4]: not effecting; also recorded: had no effect
- p-ERK level (FLT3 target) (p-ERK): down-regulation
- p-AKT level (FLT3 target) (p-AKT): down-regulation
- cytosolic beta-catenin level (TNIK target) (cytosolic beta-catenin): stabilization
- phenotype conversion of non-stem glioma cells into glioblastoma-initiating cells ([5]; listed as MCX017): prevent spontaneous and radiation-induced phenotype conversion; also recorded: prevented radiation-induced phenotype conversion
- tolerability ([6]; 5 daily injections/week for 2 weeks): well tolerated; also recorded: well tolerated in mice with no acute clinical toxicity
- body weight during observation time of 2 weeks [6, 9]: allowed animals to gain weight
- toxicity in normal tissue cell lines (normal tissue cell lines): no relevant toxicity
- median survival (PDOX models of GBM; MXC-017 alone, five daily doses/week): small but significant increase
- median survival (PDOX models of GBM; single dose 10 Gy plus MXC-017 50 mg/kg, 5 days on, 2 days off, prolonged from 29 days, p<0.0001 log-rank): 60 days
- peak brain concentrations [7]: in the micromolar range
- Kp [7, 10]: 4.55
- Kp [7, 11]: 4.55
- number of GSCs (HK374 cells; MXC-017 alone, 2 weeks treatment, extreme limiting dilution assay): significantly reduced
- frequency of glioma stem cells (HK374 cells; [9]): significantly reduced
- number of sphere forming cells (HK374 cells; [9]): reduced the number of sphere forming cells
- number of GSCs (HK374 cells; combination of radiation (single dose 10 Gy) and MXC-017): eliminated all GSCs
- histological signs of toxicity in major organs [8]: did not reveal any toxicity

SMILES: CCN(CC)S(=O)(=O)c1ccc(CNCc2ccccc2N)cc1 [MXC021, 4-(((2-Aminobenzyl)amino)methyl)-N,N-diethylbenzenesulfonamide]
- toxicity in normal tissue cell lines (normal tissue cell lines): no relevant toxicity

- peak brain concentrations [7]: in the micromolar range
- Kp [7, 10]: 2.63
- Kp [7, 11]: 2.6
SMILES: O=C(NCc1ccc(S(=O)(=O)N2CCCCCC2)cc1)n1ccc2ccccc21 [MXC079, N-(4-(Azepan-1-ylsulfonyl)benzyl)-1H-indole-1-carboxamide]
- p-ERK level (FLT3 target) (p-ERK): down-regulation
- p-AKT level (FLT3 target) (p-AKT): down-regulation
- cytosolic beta-catenin level (TNIK target) (cytosolic beta-catenin): stabilization
- phenotype conversion of non-stem glioma cells into glioblastoma-initiating cells ([5]; listed as MCX079): prevent spontaneous and radiation-induced phenotype conversion; also recorded: prevented radiation-induced phenotype conversion
- toxicity in normal tissue cell lines (normal tissue cell lines): no relevant toxicity
